# Laboratory results published in patent US20260166039A1 (SCHRÖDINGER, INC., priority 2022, published 2026).
# Target: T1, Wee1 kinase domain (Homo sapiens, UniProt P30291)
# T1 construct: Wee1 kinase domain was purchased from Carna (catalog #05-177); purchased Carna 05-177
# Assay: Wee1 Kinase Biochemical Assay (ADP-Glo)
# Conditions: Wee1 kinase domain, 15 uM ATP, ADP-Glo
# Method in brief: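 ADP-Glo detection of ADP produced after 4 h at 25° C by 1 nM Wee1 kinase domain on 2 ng/mL poly(Lys,Tyr 4:1) with 15 uM ATP. Buffer: 40 mM Tris-HCl, 20 mM MgCl2, 0.1 mg/mL BSA, 2 mM DTT. Inhibition is relative to DMSO (high) and saturating Wee1 inhibitor (low) controls.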
# T1 sequence (P30291 299-569 limits assumed): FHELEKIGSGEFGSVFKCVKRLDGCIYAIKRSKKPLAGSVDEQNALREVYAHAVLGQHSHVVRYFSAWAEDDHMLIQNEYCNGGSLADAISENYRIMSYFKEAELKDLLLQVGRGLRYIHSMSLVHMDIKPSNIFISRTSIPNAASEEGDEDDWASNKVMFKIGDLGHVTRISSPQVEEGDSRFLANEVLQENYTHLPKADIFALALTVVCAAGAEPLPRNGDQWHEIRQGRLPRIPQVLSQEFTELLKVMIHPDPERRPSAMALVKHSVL
row,Structure (SMILES),IC50
1,"C[C@H]1COC(=O)N1c1cccc(N2c3nc(Nc4ccc(N5C[C@H]6C[C@@H]5CN6C)c(F)c4)ncc3[C@]3(C)COC(C)(C)C[C@H]23)n1 (single isomer, unassigned) [Example 290]",< 0.01 µM
2,"CN1CCC(c2ccc(Nc3ncc4c(n3)N(c3cccc(N=S(C)(C)=O)n3)[C@H]3CC(C)(C)OC[C@@]43C)cc2F)CC1 (single isomer, unassigned) [Example 178]",0.1 to 1 µM
3,"Cc1cc(Nc2ncc3c(n2)N(c2cccc(N4C(=O)OC[C@@H]4C)n2)[C@H]2CC(C)(C)OC[C@@]32C)ccc1O[C@H]1CCN(C)C1 (single isomer, unassigned) [Example 344]",0.01 to 0.1 µM
4,"CNCc1cccc(N2c3nc(Nc4ccc(N5C(=O)CC[C@@H]5C)cc4)ncc3[C@]3(C)COC(C)(C)C[C@H]23)n1 (single isomer, unassigned) [Example 27]",≥ 1 µM
5,"CC1(C)C[C@@H]2N(c3cccc(N=S(C)(C)=O)n3)c3nc(Nc4ccc([C@]5(C)CCNC5)cc4)ncc3[C@]2(C)CO1 (single isomer, unassigned) [Example 172]",0.01 to 0.1 µM
6,"CNCc1cccc(N2c3nc(Nc4ccc([C@H]5CCOC5)cc4)ncc3[C@]3(C)COC(C)(C)C[C@H]23)n1 (single isomer, unassigned) [Example 39]",0.1 to 1 µM
7,"CNCc1cccc(N2c3nc(Nc4ccc([C@@H]5CNC(=O)C5)cc4)ncc3[C@]3(C)COC(C)(C)C[C@H]23)n1 (single isomer, unassigned) [Example 64]",0.01 to 0.1 µM
8,"Cn1ccc2nc(Nc3ncc4c(n3)N(c3cccc(N=S(C)(C)=O)n3)[C@@H]3CC(C)(C)OC[C@]43C)cnc21 (single isomer, unassigned) [Example 383]",< 0.01 µM
9,"Cc1cc(Nc2ncc3c(n2)N(c2cccc(N=S(C)(C)=O)n2)[C@H]2CC(C)(C)OC[C@@]32C)ccc1[C@H]1CCNC1 (single isomer, unassigned) [Example 150]",0.01 to 0.1 µM
10,"C[C@H]1COC(=O)N1c1cccc(N2c3nc(Nc4ccc(OC5CCNCC5)nc4)ncc3[C@]3(C)COC(C)(C)C[C@H]23)n1 (single isomer, unassigned) [Example 324]",0.1 to 1 µM
11,"CN1C[C@@H]2C[C@H]1CN2c1ccc(Nc2ncc3c(n2)N(c2cccc(N=S(C)(C)=O)n2)[C@H]2CC(C)(C)OC[C@@]32C)cc1 (single isomer, unassigned) [Example 123]",0.1 to 1 µM
12,"C[C@H]1COC(=O)N1c1cccc(N2c3nc(Nc4ccc(N5C[C@H]6C[C@@H](C5)N6C)cc4)ncc3[C@]3(C)COC(C)(C)C[C@H]23)n1 (single isomer, unassigned) [Example 353]",0.01 to 0.1 µM
13,"CNCc1cccc(N2c3nc(Nc4cnn(C(C)(C)C)c4)ncc3[C@]3(C)COC(C)(C)C[C@H]23)n1 (single isomer, unassigned) [Example 47]",0.1 to 1 µM
14,"C[C@H]1CN(c2ccc(Nc3ncc4c(n3)N(c3cccc(N5C(=O)OC[C@@H]5C)n3)[C@H]3CC(C)(C)OC[C@@]43C)cc2)CCN1C (single isomer, unassigned) [Example 314]",0.01 to 0.1 µM
15,"C[C@H]1COC(=O)N1c1cccc(N2c3nc(Nc4ccc(C5CCN(C)CC5)nc4)ncc3[C@]3(C)COC(C)(C)C[C@H]23)n1 (single isomer, unassigned) [Example 296]",< 0.01 µM

# Same assay, conditions: class symbols; 1 nM Wee1 enzyme, 15 uM ATP, 4 hours at 25° C.
row,Structure (SMILES),IC50
1,"CNCc1cccc(N2c3nc(Nc4ccc(-c5cnn(C)c5)c(C)c4)ncc3[C@]3(C)COC(C)(C)C[C@H]23)n1 (single isomer, unassigned) [Example 463]",0.1 to 1 µM
2,"CNc1ncc2c(n1)N(c1cccc(N=S(C)(C)=O)n1)[C@@H]1CC(C)(C)OC[C@]21C (single isomer, unassigned) [Example 723]",0.01 to 0.1 µM
3,"CN1CCC(c2cccc(N3c4nc(Nc5ccc(N6CCOCC6)cc5)ncc4[C@]4(C)COC(C)(C)C[C@H]34)n2)CC1 (single isomer, unassigned) [Example 534]",0.1 to 1 µM
4,"CN[C@@H]1CCc2ccc(N3c4nc(Nc5ccc(N6CCOCC6)cc5)ncc4[C@]4(C)COC(C)(C)C[C@H]34)nc21 (single isomer, unassigned) [Example 554]",0.1 to 1 µM
5,"CC1(C)C[C@H]2N(c3cccc(N=S(C)(C)=O)n3)c3nc(Nc4ccn(C5CCC5)c(=O)c4)ncc3[C@@]2(C)CO1 (single isomer, unassigned) [Example 802]",< 0.01 µM
6,"CN1CC[C@@H]2CN(c3ccc(Nc4ncc5c(n4)N(c4cccc(N6CCOC6=O)n4)[C@H]4CC(C)(C)OC[C@@]54C)cc3)C[C@@H]21 [Example 706, 3-(6-((4bS,8aS)-4b,7,7-trimethyl-2-((4-((3aR,6aR)-1-methylhexahydropyrrolo[3,4-b]pyrrol-5(1H)-yl)phenyl)amino)-4b,7,8,8a-tetrahydropyrano[3′,4′:4,5]pyrrolo[2,3-d]pyrimidin-9(5H)-yl)pyridin-2-yl)oxazolidin-2-one]",0.01 to 0.1 µM
7,"Cc1cc(Nc2ncc3c(n2)N(c2cccc(C(=O)N(C)C)n2)[C@H]2CC(C)(C)OC[C@@]32C)ccc1C1CCN(C)CC1 (single isomer, unassigned) [Example 584]",0.1 to 1 µM
8,"CNCc1cccc(N2c3nc(Nc4ccc(N5CCN(C)CC5)c(C)c4)ncc3[C@]3(C)COC(C)(C)C[C@H]23)n1 (single isomer, unassigned) [Example 447]",0.1 to 1 µM
9,"CC1(C)C[C@H]2N(c3cccc(N=S(C)(C)=O)n3)c3nc(NC(=O)c4ccccc4)ncc3[C@@]2(C)CO1 (single isomer, unassigned) [Example 404]",0.01 to 0.1 µM
10,"CNCc1ccnc(N2c3nc(Nc4ccc(N5CCOCC5)cc4)ncc3[C@@]3(C)COC(C)(C)C[C@@H]23)c1 (single isomer, unassigned) [Example 547]",0.01 to 0.1 µM
11,"CNCc1cccc(N2c3nc(Nc4ccc(N5CCOCC5)cc4)ncc3[C@]3(C)COCC[C@H]23)n1 (single isomer, unassigned) [Example 573]",0.1 to 1 µM
12,"CN1C[C@H]2C[C@@H]1CN2c1ccc(Nc2ncc3c(n2)N(c2cccc(N4CCOC4=O)n2)[C@H]2CC(C)(C)OC[C@@]32C)cc1 (single isomer, unassigned) [Example 592]",0.01 to 0.1 µM
13,"Cc1cc(Nc2ncc3c(n2)N(c2cccc(N4CCOC4=O)n2)[C@H]2CC(C)(C)OC[C@@]32C)ccc1C1CCN(C)CC1 (single isomer, unassigned) [Example 596]",0.01 to 0.1 µM
14,"CC1(C)C[C@@H]2N(c3cccc([C@@H]4CNCCO4)n3)c3nc(Nc4ccc(N5CCOCC5)cc4)ncc3[C@]2(C)CO1 [Example 736, (4bS,8aS)-4b,7,7-trimethyl-9-(6-((S)-morpholin-2-yl)pyridin-2-yl)-N-(4-morpholinophenyl)-4b,5,7,8,8a,9-hexahydropyrano[3′,4′:4,5]pyrrolo[2,3-d]pyrimidin-2-amine]",0.1 to 1 µM
15,"CN[C@@H](C)c1cccc(N2c3nc(Nc4ccc(N5C[C@H]6C[C@@H]5CO6)cc4)ncc3[C@]3(C)COC(C)(C)C[C@H]23)n1 (single isomer, unassigned) [Example 578]",0.1 to 1 µM
16,"Cc1cc(Nc2ncc3c(n2)N(c2cccc(N4CCCC4=O)n2)[C@H]2CC(C)(C)OC[C@@]32C)ccc1N1C[C@@H]2C[C@H]1CN2C [Example 653, 1-(6-((4bS,8aS)-4b,7,7-trimethyl-2-((3-methyl-4-((1S,4S)-5-methyl-2,5-diazabicyclo[2.2.1]heptan-2-yl)phenyl)amino)-4b,7,8,8a-tetrahydropyrano[3′,4′:4,5]pyrrolo[2,3-d]pyrimidin-9(5H)-yl)pyridin-2-yl)pyrrolidin-2-one]",0.01 to 0.1 µM
